Results: ChEMBL document CHEMBL5126585, “Synthesis and evaluation of 1,2,3-dithiazole inhibitors of the nucleocapsid protein of feline immunodeficiency virus (FIV) as a model for HIV infection” (Bioorg Med Chem, 2022)

What was measured:
[1] = Cytotoxicity against CRFK cells assessed as reduction in cell viability incubated for 24 hrs by MTT assay; type: toxicity, cell-based, Felis catus; settings: cat
[2] = Cytotoxicity against FEA cells assessed as reduction in cell viability incubated for 24 hrs by MTT assay; type: toxicity, cell-based, Felis catus; settings: cat
[3] = Cytotoxicity against IL2 independent FL-4 cells assessed as reduction in cell viability measured after 7 days by MTT assay; type: toxicity, cell-based, Felis catus; settings: cat, time 7 day
[4] = system: Feline immunodeficiency virus; experiment: Antiviral activity against Feline immunodeficiency virus infected in IL2 independent FL-4 cells assessed as reduction in viral replication treated for 7 days with daily replacement by qRT-PCR analysis; type: functional, organism-based; settings: FL-4, 168 h
[5] = Therapeutic index, ratio of CC50 for cytotoxicity against IL2 independent FL-4 cells to EC50 for antiviral activity against Feline immunodeficiency virus infected in IL2 independent FL-4 cells; type: toxicity, cell-based; settings: cat; read-out: Ratio CC50/EC50

SMILES	CC50 at 24 h [1]	CC50 at 24 h [2]	CC50 at 168 h [3]	EC50 [4]	selectivity ratio [5]
Cc1cc(/N=c2\ssnc2Cl)n(Cc2ccccc2)n1	33 µM	30 µM	52 µM	22 µM	2.4
Fc1ccc(/N=c2\ssnc2Cl)cc1	> 100 µM	> 100 µM	> 100 µM	0.98 µM	> 100
FC(F)(F)Oc1ccc(/N=c2\ssnc2Cl)cc1Br	> 100 µM	> 100 µM	> 100 µM	> 100 µM	
FC(F)(F)c1ccc(/N=c2\ssnc2Cl)cc1	> 100 µM	> 100 µM	> 100 µM	15 µM	> 6.7
CSc1ccc(/N=c2\ssnc2Cl)cc1	43 µM	53 µM	51 µM	21 µM	2.4
Clc1nss/c1=N\c1cccc(Br)c1	> 100 µM	> 100 µM	> 100 µM	> 100 µM	
COc1cccnc1/N=c1\ssnc1Cl	37 µM	37 µM	61 µM	2.9 µM	21
Clc1nss/c1=N\c1ccc(I)cc1	73 µM	44 µM	49 µM	0.38 µM	129
Clc1nss/c1=N\c1cc(-c2ccccc2)nn1Cc1ccccc1	37 µM	29 µM	53 µM	31 µM	1.7
Clc1nss/c1=N\c1ccccn1	29 µM	4.6 µM	40 µM	0.38 µM	105
Clc1nss/c1=N\c1ccc2c(c1)OCO2	44 µM	53 µM	49 µM	20 µM	2.5
CCCCOc1ccc(/N=c2\ssnc2Cl)cc1	> 100 µM	> 100 µM	> 100 µM	26 µM	> 3.8
Clc1ccccc1/N=c1\ssnc1Cl	> 100 µM	25 µM	51 µM	20 µM	2.6
Clc1nss/c1=N\c1ccc(OCc2ccccc2)cc1	> 100 µM	74 µM	44 µM	23 µM	1.9
Clc1nss/c1=N\c1cc(-c2ccccc2)n[nH]1	18 µM	31 µM	4.9 µM	0.53 µM	9.2
Clc1nss/c1=N\c1ccc(Br)cc1	> 100 µM	40 µM	> 100 µM	0.64 µM	> 160
FC(F)(F)Oc1ccc(/N=c2\ssnc2Cl)cc1Cl	85 µM	> 100 µM	23 µM	23 µM	1

SMILES	CC50 at 24 h [1]	CC50 at 24 h [2]	CC50 at 168 h [3]	EC50 [4]	selectivity ratio [5]
Fc1ccc(F)c(/N=c2\ssnc2Cl)c1	> 100 µM	> 100 µM	89 µM	0.68 µM	131
Clc1nss/c1=N\c1cccc(Br)n1	38 µM	52 µM	44 µM	0.48 µM	92
CCOc1cccnc1/N=c1\ssnc1Cl	42 µM	45 µM	49 µM	0.55 µM	90
Cc1cc(/N=c2\ssnc2Cl)n[nH]1	> 100 µM	55 µM	50 µM	0.083 µM	600
O=[N+]([O-])c1ccc(/N=c2\ssnc2Cl)cc1	31 µM	50 µM	49 µM	0.29 µM	170
FC(F)(F)Oc1ccc(/N=c2\ssnc2Cl)cc1	> 100 µM	> 100 µM	> 100 µM	> 100 µM	
Clc1ccc(/N=c2\ssnc2Cl)cc1	> 100 µM	51 µM	45 µM	0.57 µM	79
Clc1nss/c1=N\c1nccs1	7.6 µM	8.4 µM	4.7 µM	3 µM	1.6
O=[N+]([O-])c1cccnc1/N=c1\ssnc1Cl	21 µM	6.1 µM	2.6 µM	2 µM	1.3
N#Cc1c(Br)cccc1/N=c1\ssnc1Cl	38 µM	41 µM	53 µM	15 µM	3.5
N#Cc1ccc(/N=c2\ssnc2Cl)cc1	31 µM	50 µM	> 100 µM	0.62 µM	> 160
Clc1nss/c1=N\c1ccccc1Br	> 100 µM	> 100 µM	39 µM	12 µM	3.3
Clc1nss/c1=N\c1ccc(Oc2ccccc2)cc1	> 100 µM	> 100 µM	> 100 µM	35 µM	> 2.9
N#Cc1cccnc1/N=c1\ssnc1Cl	3.1 µM	36 µM	51 µM	0.42 µM	122
Cc1cc(OC(F)(F)F)ccc1/N=c1\ssnc1Cl	> 100 µM	> 100 µM	> 100 µM	> 100 µM	
COc1cccc(/N=c2\ssnc2Cl)n1	34 µM	4.3 µM	47 µM	0.26 µM	178
